Literature values, collected in patent publication US20090155358A1, “PHARMACEUTICAL COMPOSITIONS OF SHORT-ACTING HYPNOTIC AGENTS IN MODIFIED-RELEASE FORMS AND THE […] PREPARE THE MENTIONED FORMULATION” (Gador S.A., priority 2005, published 2009).
Structures can show the parent of a compound that is named as a salt.

What was measured:
BZ1 receptor = biological target: T1, BZ1 receptor (Homo sapiens, UniProt P14867+P18507); conditions: in vitro
T1 sequence (P14867 28-456): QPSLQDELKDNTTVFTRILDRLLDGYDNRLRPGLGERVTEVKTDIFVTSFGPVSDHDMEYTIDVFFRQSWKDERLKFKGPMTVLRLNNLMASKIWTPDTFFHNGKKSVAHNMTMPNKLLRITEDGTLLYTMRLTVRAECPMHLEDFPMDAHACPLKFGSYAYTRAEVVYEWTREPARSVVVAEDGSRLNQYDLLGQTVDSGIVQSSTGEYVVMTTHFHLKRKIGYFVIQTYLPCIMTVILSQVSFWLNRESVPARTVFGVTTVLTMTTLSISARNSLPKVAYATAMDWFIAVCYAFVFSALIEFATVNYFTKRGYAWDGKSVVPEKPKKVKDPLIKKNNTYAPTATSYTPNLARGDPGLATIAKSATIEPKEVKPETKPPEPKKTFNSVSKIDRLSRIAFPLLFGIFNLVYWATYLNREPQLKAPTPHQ
T1 sequence (P18507 40-467 limits assumed): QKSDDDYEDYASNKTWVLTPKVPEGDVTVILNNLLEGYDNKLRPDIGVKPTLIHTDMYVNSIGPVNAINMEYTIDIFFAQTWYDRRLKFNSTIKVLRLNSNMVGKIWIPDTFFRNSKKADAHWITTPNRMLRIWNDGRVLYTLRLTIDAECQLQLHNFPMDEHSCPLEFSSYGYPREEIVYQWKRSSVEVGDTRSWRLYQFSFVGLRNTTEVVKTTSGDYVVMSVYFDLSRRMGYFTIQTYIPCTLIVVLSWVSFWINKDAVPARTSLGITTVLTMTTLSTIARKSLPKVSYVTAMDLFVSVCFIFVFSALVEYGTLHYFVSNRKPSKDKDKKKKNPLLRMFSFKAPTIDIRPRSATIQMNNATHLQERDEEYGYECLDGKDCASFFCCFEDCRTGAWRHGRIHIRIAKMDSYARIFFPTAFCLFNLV
T1 sequence (P47870 25-512 partner limits assumed): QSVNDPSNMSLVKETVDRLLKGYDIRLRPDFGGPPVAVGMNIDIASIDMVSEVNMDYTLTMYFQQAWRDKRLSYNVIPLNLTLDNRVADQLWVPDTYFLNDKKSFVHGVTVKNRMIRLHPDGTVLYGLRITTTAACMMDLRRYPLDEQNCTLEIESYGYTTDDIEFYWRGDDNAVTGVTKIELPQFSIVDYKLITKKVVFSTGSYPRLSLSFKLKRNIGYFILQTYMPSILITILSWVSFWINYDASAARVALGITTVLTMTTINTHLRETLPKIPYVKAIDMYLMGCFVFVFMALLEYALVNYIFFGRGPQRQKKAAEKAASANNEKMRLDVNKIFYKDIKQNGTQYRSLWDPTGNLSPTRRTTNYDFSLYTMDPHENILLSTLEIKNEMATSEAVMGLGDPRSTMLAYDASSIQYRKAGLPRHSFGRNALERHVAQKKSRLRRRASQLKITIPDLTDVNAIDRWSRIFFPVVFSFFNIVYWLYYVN

In the case of Cc1ccc(-c2nc3ccc(C)cn3c2CC(=O)N(C)C)cc1 [Zolpidem tartrate, N,N,6-trimethyl-2-p-toyl-imidazo[1,2-a]pyridine-3-acetamide], the solubility in alcohol (alcohol) is listed as “sparingly soluble”, the “solubility in propylene glycol” value (propylene glycol) is listed as “sparingly soluble” and the solubility in water (water) is listed as “sparingly soluble”.

In the case of Cc1ccc(-c2nc3ccc(C)cn3c2CC(=O)N(C)C)cc1 [Zolpidem, N,N,6-trimethyl-2-p-toyl-imidazo[1,2-a]pyridine-3-acetamide], the “affinity for BZ1 receptor, subunits α1/α5” value (BZ1 receptor) is listed as “large affinity”.
